For data set [1], the target named is Prostaglandin E2 receptor EP2 subtype (Homo sapiens, UniProt P43116). Nature of the data set: Displacement of [3H]-PGE2 from human EP2 receptor expressed in HEK293 cells. It is filed as cell-based.
Another data set has as its target CYP2C19 (Homo sapiens, UniProt P33261). In words: (§1) Inhibition of recombinant human CYP2C19 at 3 uM by fluorimetry. It is filed as ADME. The note with it: recombinant human CYP2C19.
The target in data set [2] is T1, Prostaglandin E2 receptor EP4 subtype (Homo sapiens, UniProt P35408). In words: Agonist activity at human EP4 receptor expressed in HEK293 cells assessed as potentiation of cAMP accumulation by bead-based proximity assay in absence of PGE2. It is filed as functional, cell-based.
T1 sequence (P35408 whole entry): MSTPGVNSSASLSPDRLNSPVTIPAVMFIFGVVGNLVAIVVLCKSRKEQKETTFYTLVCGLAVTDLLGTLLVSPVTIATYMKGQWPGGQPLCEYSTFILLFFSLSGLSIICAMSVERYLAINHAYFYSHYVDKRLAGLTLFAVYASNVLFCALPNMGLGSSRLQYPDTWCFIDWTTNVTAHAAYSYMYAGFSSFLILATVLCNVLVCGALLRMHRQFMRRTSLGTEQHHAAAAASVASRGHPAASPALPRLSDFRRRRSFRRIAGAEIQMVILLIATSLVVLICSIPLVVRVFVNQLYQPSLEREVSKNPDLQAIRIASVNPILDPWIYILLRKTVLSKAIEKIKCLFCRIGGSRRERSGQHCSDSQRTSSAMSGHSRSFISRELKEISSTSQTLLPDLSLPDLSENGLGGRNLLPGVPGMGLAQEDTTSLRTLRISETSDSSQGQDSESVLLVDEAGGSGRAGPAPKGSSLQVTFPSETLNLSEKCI
Data set [3] deals with T1, Prostaglandin E2 receptor EP4 subtype. Nature of the data set: Displacement of [3H]-PGE2 from human EP4 receptor expressed in HEK293 cells. It is filed as cell-based.
The target of another data set is Cytochrome P450 2D6 (Homo sapiens, UniProt P10635). In words: Inhibition of recombinant human CYP2D6 at 3 uM by fluorimetry. It is filed as ADME. The note with it: recombinant enzyme.
Chain of Cytochrome P450 2D6 (P10635 whole entry): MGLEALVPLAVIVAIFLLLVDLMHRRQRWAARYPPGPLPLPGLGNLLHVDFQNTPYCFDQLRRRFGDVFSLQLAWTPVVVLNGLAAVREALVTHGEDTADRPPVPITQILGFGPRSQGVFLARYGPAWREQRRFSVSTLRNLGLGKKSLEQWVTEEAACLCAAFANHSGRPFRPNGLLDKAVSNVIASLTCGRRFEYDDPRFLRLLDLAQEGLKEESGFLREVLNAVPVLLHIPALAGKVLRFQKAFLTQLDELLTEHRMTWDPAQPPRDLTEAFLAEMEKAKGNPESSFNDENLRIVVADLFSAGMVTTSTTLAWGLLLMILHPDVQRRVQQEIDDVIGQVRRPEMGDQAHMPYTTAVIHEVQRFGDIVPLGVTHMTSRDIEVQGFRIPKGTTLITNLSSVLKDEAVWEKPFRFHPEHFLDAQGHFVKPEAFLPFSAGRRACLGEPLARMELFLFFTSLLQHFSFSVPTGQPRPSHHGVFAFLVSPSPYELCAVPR
The target in data set [4] is T2, Cytochrome P450 3A4 (Homo sapiens, UniProt P08684). In words: Inhibition of recombinant human CYP3A4 using diethoxyfluorescein as substrate at 3 uM by fluorimetry. The format is ADME. Conditions: recombinant enzyme.
T2 sequence (P08684 whole entry): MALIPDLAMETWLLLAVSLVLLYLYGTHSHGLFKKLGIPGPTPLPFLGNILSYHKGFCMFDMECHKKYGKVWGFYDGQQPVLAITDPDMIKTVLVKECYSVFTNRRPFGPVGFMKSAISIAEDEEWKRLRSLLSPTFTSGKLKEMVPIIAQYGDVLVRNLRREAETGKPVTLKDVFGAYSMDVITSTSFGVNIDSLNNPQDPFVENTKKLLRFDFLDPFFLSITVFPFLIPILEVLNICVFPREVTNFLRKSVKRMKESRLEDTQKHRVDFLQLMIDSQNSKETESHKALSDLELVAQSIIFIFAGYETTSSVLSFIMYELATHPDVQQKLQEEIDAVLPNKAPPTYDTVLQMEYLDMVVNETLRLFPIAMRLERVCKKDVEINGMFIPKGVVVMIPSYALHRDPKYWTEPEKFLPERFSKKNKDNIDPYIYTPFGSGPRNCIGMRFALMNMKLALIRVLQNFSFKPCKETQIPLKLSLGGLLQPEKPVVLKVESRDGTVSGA
Another data set concerns the target T3, Cytochrome P450 1A2 (Homo sapiens, UniProt P05177).
T3 sequence (P05177 whole entry): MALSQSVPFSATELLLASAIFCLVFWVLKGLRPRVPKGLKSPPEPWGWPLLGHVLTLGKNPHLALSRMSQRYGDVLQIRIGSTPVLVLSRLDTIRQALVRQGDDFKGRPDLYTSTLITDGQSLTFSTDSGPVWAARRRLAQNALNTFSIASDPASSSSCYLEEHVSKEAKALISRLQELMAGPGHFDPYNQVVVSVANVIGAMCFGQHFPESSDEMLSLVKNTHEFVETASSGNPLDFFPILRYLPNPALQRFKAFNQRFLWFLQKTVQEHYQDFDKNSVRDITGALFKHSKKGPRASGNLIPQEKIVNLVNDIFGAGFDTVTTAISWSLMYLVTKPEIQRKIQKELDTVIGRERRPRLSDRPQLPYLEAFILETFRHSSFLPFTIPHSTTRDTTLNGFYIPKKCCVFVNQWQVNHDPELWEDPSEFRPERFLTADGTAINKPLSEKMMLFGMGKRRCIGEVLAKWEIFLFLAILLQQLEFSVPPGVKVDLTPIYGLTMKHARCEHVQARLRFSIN
In words: Inhibition of recombinant human CYP1A2 at 3 uM by fluorimetry. The format is ADME. Conditions: recombinant enzyme.

The target of data set [5] is T2, Cytochrome P450 3A4. In words: Inhibition of recombinant human CYP3A4 using 7-benzyloxy-4-trifluoromethyl coumarin as substrate at 3 uM by fluorimetry. The format is ADME. The note with it: recombinant enzyme.
The target in data set [6] is T1, Prostaglandin E2 receptor EP4 subtype. In words: Antagonist activity at human EP4 receptor expressed in HEK293 cells assessed as inhibition of PGE2-induced cAMP accumulation by bead-based proximity assay. The format is functional, cell-based.
The next data set has as its target CYP2C9 (Homo sapiens, UniProt P11712). Nature of the data set: Inhibition of recombinant human CYP2C9 at 3 uM by fluorimetry. The format is ADME.
For another data set, the target named is Cytochrome P450 2C19 (Homo sapiens, UniProt P33261). The data set is described as §1. It is filed as ADME. Conditions: recombinant enzyme, 3 µM.
Chain of Cytochrome P450 2C19 (P33261 whole entry): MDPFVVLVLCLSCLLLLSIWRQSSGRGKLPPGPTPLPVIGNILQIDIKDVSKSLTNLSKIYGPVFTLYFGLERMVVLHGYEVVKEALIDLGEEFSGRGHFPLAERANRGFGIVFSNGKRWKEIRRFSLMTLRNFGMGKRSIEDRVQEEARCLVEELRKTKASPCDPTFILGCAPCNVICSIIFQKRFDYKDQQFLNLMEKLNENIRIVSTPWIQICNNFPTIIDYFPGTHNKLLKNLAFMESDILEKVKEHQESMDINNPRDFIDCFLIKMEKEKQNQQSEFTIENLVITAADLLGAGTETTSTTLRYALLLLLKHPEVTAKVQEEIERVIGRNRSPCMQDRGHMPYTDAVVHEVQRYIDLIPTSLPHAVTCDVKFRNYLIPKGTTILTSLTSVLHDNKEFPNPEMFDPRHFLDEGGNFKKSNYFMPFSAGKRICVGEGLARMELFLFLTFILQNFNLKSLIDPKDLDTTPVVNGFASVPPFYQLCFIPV
Data set [7] has as its target T1, Prostaglandin E2 receptor EP4 subtype. In words: Ratio of CJ-42794 IC50 to compound IC50 for human EP4 receptor expressed in HEK293 cells. It is filed as cell-based.

The results in this text go back to ChEMBL document CHEMBL1909549, “Synthesis, pharmacophore modeling and in vitro activity of 10,11-dihydrodibenzo[b,f]oxepine-4-carboxamide derivatives as novel and potent antagonists of the prostaglandin EP4 receptor” (Bioorg Med Chem Lett, 2011).

Active and inactive are the calls of the source. No cut-off for these calls is given here.

Chain of CYP2C9 (P11712 whole entry): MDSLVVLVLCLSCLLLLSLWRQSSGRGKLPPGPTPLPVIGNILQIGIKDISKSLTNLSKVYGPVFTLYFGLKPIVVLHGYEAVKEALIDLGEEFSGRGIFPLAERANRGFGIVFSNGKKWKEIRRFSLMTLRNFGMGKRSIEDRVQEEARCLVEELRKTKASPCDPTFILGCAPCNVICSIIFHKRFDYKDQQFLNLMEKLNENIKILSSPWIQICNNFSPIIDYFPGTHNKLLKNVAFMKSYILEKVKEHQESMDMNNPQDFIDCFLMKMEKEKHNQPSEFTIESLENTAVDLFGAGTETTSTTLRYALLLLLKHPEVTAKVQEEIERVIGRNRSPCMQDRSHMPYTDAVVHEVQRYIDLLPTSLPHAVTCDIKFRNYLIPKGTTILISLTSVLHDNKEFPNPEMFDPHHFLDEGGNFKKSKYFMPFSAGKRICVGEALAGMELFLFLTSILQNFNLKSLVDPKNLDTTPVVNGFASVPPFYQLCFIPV
Chain of Prostaglandin E2 receptor EP2 subtype (P43116 whole entry): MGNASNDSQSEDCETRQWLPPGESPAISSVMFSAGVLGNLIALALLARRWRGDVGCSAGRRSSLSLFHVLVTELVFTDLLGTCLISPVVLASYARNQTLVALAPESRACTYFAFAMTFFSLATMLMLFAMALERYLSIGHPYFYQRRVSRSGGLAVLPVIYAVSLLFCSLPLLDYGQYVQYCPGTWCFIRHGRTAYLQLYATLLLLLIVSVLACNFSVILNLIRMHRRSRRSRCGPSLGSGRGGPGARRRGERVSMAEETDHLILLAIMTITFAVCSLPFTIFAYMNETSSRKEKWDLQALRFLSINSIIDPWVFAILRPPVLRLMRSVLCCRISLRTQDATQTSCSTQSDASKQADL
Chain of CYP2C19 (P33261 whole entry): as the sequence (P33261 whole entry) above

Turning to `O=C(O)c1ccc(C2(NC(=O)c3cccc4c3Oc3ccc(C(F)(F)F)cc3CC4)CC2)cc1`, the IC50 in data set [1] was greater than 1 µM; in data set [3], 0.027 µM; in [6], 0.034 µM. Besides, the inhibition at 3 µM on CYP2C19 was 13%; at CYP2C9, 26%. For the same compound, the result in data set [2] was inactive. Further, the “inhibition (INH)” value at Cytochrome P450 2D6, on Cytochrome P450 3A4 [4], on Cytochrome P450 1A2 and at Cytochrome P450 3A4 [5] was “Not Active” throughout.

Turning to `C[C@H](NC(=O)c1cccc2c1Oc1ccc(C(F)(F)F)cc1CC2)c1ccc(C(=O)O)cc1`, the figures for the IC50 in data set [1], in data set [3] and in [6] were greater than 1 µM, 0.063 µM and 0.042 µM, respectively. The values for the inhibition at 3 µM on CYP2C19 and at CYP2C9 were 11% and 17%, respectively. Besides, in [2], the result was inactive. Further, the “inhibition (INH)” value on Cytochrome P450 2D6, on Cytochrome P450 3A4 [4], at Cytochrome P450 1A2 and at Cytochrome P450 3A4 [5] was “Not Active” each time.

Turning to `C[C@H](NC(=O)c1cc(Cl)ccc1Oc1ccc(F)cc1)c1ccc(C(=O)O)cc1`, the IC50 in data set [1] is greater than 1 µM; in [3], 0.01 µM; in data set [6], 0.013 µM.

On to `O=C(O)c1ccc(C2(NC(=O)c3cccc4c3Oc3cc(C(F)(F)F)ccc3CC4)CC2)cc1`, for which the values for the IC50 in data set [1], in data set [3] and in data set [6] were greater than 1 µM, 0.004 µM and 1 µM, respectively. Also, the “inhibition (INH)” value on Cytochrome P450 2C19, at Cytochrome P450 2D6, on Cytochrome P450 3A4 [4], on Cytochrome P450 1A2 and at Cytochrome P450 3A4 [5] was “Not Active” throughout. Moreover, the result in [2] was inactive. On CYP2C9, the inhibition at 3 µM is 11%.

`C[C@H](NC(=O)c1cccc2c1Oc1cc(C(F)(F)F)ccc1CC2)c1ccc(C(=O)O)cc1`: the IC50 in data set [1] is greater than 1 µM; in data set [3], 0.002 µM; in data set [6], 0.02 µM. The “inhibition (INH)” value at Cytochrome P450 2C19, at Cytochrome P450 2D6, at Cytochrome P450 3A4 [4], at Cytochrome P450 1A2 and on Cytochrome P450 3A4 [5] was “Not Active” in each case. Further, the Ratio IC50 in data set [7] came out at 5. Also, the result in [2] was inactive. For the same compound, the inhibition at 3 µM at CYP2C9 came out at 21%.
